Type in all cases: biochemical
For one experiment, the target named is T1, CDK1/cyclinB (Homo sapiens, UniProt P06493).
T1 construct: purchased Millipore
Nature of the experiment: CDK1/cyclinB IMAP fluorescence polarization kinase assay. Conditions: 52 μM ATP, two hours at room temperature. How it is done: (§1) Kinase assays were performed on recombinant purified enzymes using the non-radioactive IMAP fluorescence polarization assay format.
(§2) Compound stocks were prepared and diluted in DMSO and were added to kinase reactions at a 1/100 dilution for a final concentration of 1% DMSO. The components were added together to final concentrations listed in the tables below and incubated for two hours at room temperature.
(§3) The reactions were stopped by addition of stop solution.
(§4) CDK9/CDK1/CDK7: final stop concentration is 1× Developer buffer (85% A/15% B), IMAP beads 1/400
(§5) The samples were allowed to incubate for one more hour at room temperature and then the fluorescence polarization was measured. The plate normalized millipolarization (mP) values were plotted against the log of compound concentration for each compound and IC50 values were calculated using the spotfire IC50 calculator and confirmed by visual analysis.

A further experiment deals with T2, CDK2/cyclinA (Homo sapiens, UniProt P24941).
T2 construct: purchased Millipore
The experiment in a line: CDK2/cyclinA IMAP fluorescence polarization kinase assay. To be noted: 4.68 μM ATP, two hours at room temperature. The protocol: as §1, §2, §3
CDK2: final stop concentration is 1× Developer buffer (100% A), IMAP beads 1/400
as §5

Another experiment concerns the target T3, CDK9/cyclinT1 (Homo sapiens, UniProt P50750).
T3 construct: purchased Millipore
Nature of the experiment: CDK9/cyclinT1 IMAP fluorescence polarization kinase assay. Conditions: 6 μM ATP, two hours at room temperature. How it is done:
as §1, §2, §3, §4, §5

T1 sequence (P06493 whole entry): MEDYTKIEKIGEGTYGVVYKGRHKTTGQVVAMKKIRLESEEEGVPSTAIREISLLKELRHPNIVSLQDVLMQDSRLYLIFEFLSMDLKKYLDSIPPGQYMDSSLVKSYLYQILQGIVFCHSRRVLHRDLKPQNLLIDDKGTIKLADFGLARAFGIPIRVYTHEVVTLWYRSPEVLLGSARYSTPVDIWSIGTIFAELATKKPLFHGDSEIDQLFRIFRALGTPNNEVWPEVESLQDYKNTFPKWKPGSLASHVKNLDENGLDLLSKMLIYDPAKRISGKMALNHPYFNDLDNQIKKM
T1 sequence (P14635 whole entry partner): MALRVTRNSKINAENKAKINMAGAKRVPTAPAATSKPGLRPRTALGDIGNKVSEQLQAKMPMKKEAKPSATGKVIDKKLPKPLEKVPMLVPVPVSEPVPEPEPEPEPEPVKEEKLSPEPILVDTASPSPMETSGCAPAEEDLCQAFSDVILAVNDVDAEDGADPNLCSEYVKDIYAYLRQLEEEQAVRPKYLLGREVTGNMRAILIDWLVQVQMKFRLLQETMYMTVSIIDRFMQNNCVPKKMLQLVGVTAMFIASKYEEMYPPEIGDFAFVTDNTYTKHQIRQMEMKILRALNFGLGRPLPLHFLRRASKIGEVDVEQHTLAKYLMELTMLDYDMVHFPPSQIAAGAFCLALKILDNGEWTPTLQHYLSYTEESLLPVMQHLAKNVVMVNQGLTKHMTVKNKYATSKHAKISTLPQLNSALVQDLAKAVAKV
T3 sequence (P50750 whole entry): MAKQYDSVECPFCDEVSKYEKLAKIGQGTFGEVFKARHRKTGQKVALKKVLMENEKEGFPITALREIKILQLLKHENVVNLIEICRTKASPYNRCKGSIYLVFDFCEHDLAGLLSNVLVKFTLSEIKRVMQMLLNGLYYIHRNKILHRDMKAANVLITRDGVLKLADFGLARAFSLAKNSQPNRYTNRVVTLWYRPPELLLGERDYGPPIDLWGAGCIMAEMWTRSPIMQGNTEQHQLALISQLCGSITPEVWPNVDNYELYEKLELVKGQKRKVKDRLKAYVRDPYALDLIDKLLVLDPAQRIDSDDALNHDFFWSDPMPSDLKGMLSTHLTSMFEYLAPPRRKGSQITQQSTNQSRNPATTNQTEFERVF
T3 sequence (O60563 whole entry partner): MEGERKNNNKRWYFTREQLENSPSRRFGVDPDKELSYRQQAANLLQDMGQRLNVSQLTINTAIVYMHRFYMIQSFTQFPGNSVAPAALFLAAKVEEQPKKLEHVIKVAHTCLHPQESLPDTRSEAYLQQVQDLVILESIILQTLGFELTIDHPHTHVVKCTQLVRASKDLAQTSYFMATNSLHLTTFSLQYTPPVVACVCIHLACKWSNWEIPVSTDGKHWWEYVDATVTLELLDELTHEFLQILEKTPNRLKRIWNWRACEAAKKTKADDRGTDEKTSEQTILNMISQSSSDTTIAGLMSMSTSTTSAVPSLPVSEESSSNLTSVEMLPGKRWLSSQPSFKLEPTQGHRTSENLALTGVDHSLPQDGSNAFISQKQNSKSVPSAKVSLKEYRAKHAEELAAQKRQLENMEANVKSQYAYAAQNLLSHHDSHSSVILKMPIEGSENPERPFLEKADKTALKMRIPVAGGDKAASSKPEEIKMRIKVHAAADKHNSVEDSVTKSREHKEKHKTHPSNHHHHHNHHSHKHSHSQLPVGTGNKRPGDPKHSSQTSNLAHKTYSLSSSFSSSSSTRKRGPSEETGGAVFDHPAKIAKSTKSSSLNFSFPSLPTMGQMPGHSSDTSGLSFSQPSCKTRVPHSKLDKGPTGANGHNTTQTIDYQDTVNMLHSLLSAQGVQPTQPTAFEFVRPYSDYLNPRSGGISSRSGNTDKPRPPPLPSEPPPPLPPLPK

With `O=C(O)Cn1ccc2c(-c3ccnc(Nc4cccc(Cl)c4)n3)cccc21` [Compound 24, {4-[2-(3-Chloro-phenylamino)-pyrimidin-4-yl]-indol-1-yl}-acetic acid], the results for the IC50 against CDK1/cyclinB, on CDK2/cyclinA and against CDK9/cyclinT1 were 15 to 50 µM, 5 to 15 µM and less than 5 µM, respectively.

In the case of `OCCCn1ccc2c(-c3ccnc(Nc4cccc(Cl)c4)n3)cccc21` [Compound 8, 3-{4-[2-(3-Chloro-phenylamino)-pyrimidin-4-yl]-indol-1-yl}-propan-1-ol], the IC50 is 5 to 15 µM against CDK1/cyclinB, less than 5 µM against CDK2/cyclinA and less than 5 µM against CDK9/cyclinT1.

Regarding `NCCNC(=O)Cn1ccc2c(-c3ccnc(Nc4cccc(Cl)c4)n3)cccc21` [Compound 19, N-(2-Amino-ethyl)-2-{4-[2-(3-chloro-phenylamino)-pyrimidin-4-yl]-indol-1-yl}-acetamide], the results for the half-inhibitory concentration (IC50) against CDK1/cyclinB, on CDK2/cyclinA and on CDK9/cyclinT1 were 5 to 15 µM, more than 50 µM and less than 5 µM, respectively.

In the case of `CCn1ccc2c(-c3ccnc(Nc4cccc(Cl)c4)n3)cccc21` [Compound 4, (3-Chloro-phenyl)-[4-(1-ethyl-1H-indol-4-yl)-pyrimidin-2-yl]-amine], the figures for the half-inhibitory concentration (IC50) against CDK1/cyclinB, on CDK2/cyclinA and against CDK9/cyclinT1 were less than 5 µM, 5 to 15 µM and less than 5 µM, respectively.

On to `O=C(Cn1ccc2c(-c3ccnc(Nc4cccc(Cl)c4)n3)cccc21)NCc1ccccc1` [Compound 17, N-Benzyl-2-{4-[2-(3-chloro-phenylamino)-pyrimidin-4-yl]-indol-1-yl}-acetamide], for which the half-inhibitory concentration (IC50) on CDK1/cyclinB, against CDK2/cyclinA and against CDK9/cyclinT1 was more than 50 µM in each case.

As for `CC(C)CNC(=O)Cn1ccc2c(-c3ccnc(Nc4cccc(Cl)c4)n3)cccc21` [Compound 16, 2-{4-[2-(3-Chloro-phenylamino)-pyrimidin-4-yl]-indol-1-yl}-N-isobutyl-acetamide], the values for the IC50 at CDK1/cyclinB, on CDK2/cyclinA and at CDK9/cyclinT1 were more than 50 µM, more than 50 µM and less than 5 µM, respectively.

For the compound `O=C(Cn1ccc2c(-c3ccnc(Nc4cccc(Cl)c4)n3)cccc21)NCCO` [Compound 18, 2-{4-[2-(3-Chloro-phenylamino)-pyrimidin-4-yl]-indol-1-yl}-N-(2-hydroxy-ethyl)-acetamide], the IC50 was 5 to 15 µM at CDK1/cyclinB, less than 5 µM at CDK2/cyclinA and less than 5 µM against CDK9/cyclinT1.

For the compound `O=C(Cn1ccc2c(-c3ccnc(Nc4cccc(Cl)c4)n3)cccc21)NCC1CCCN1` (stereo not drawn) [Compound 22, 2-{4-[2-(3-Chloro-phenylamino)-pyrimidin-4-yl]-indol-1-yl}-N-pyrrolidin-2-ylmethyl-acetamide], the half-inhibitory concentration (IC50) on CDK1/cyclinB was 5 to 15 µM; against CDK2/cyclinA, less than 5 µM; against CDK9/cyclinT1, less than 5 µM.

`Clc1cccc(Nc2nccc(-c3cccc4c3ccn4Cc3ccccc3)n2)c1` [Compound 6, [4-(1-Benzyl-1H-indol-4-yl)-pyrimidin-2-yl]-(3-chloro-phenyl)-amine]: the values for the 50% inhibitory concentration (IC50) at CDK1/cyclinB, at CDK2/cyclinA and on CDK9/cyclinT1 were more than 50 µM, more than 50 µM and less than 5 µM, respectively.

In the case of `CNC(=O)Cn1ccc2c(-c3ccnc(Nc4cccc(Cl)c4)n3)cccc21` [Compound 12, 2-{4-[2-(3-Chloro-phenylamino)-pyrimidin-4-yl]-indol-1-yl}-N-methyl-acetamide], the concentration for half-maximal inhibition (IC50) at CDK1/cyclinB, against CDK2/cyclinA and against CDK9/cyclinT1 was less than 5 µM in each case.

As for `OCCn1ccc2c(-c3ccnc(Nc4cccc(Cl)c4)n3)cccc21` [Compound 7, 2-{4-[2-(3-chloroaniline)-pyrimidin-4-yl]-indol-1-yl}-ethanol], the IC50 against CDK1/cyclinB is 5 to 15 µM; on CDK2/cyclinA, less than 5 µM; at CDK9/cyclinT1, less than 5 µM.

As to `NC1CCN(C(=O)Cn2ccc3c(-c4ccnc(Nc5cccc(Cl)c5)n4)cccc32)CC1` [Compound 21, 1-(4-Amino-piperidin-1-yl)-2-{4-[2-(3-chloro-phenylamino)-pyrimidin-4-yl]-indol-1-yl}-ethanone], the half-maximal inhibitory concentration (IC50) at CDK1/cyclinB was more than 50 µM; on CDK2/cyclinA it was 15 to 50 µM; against CDK9/cyclinT1 it was less than 5 µM.

Turning to `O=C(Cn1ccc2c(-c3ccnc(Nc4cccc(Cl)c4)n3)cccc21)N1CCNCC1` [Compound 20, 2-{4-[2-(3-Chloro-phenylamino)-pyrimidin-4-yl]-indol-1-yl}-1-piperazin-1-yl-ethanone], the half-inhibitory concentration (IC50) at CDK1/cyclinB was more than 50 µM; at CDK2/cyclinA, more than 50 µM; on CDK9/cyclinT1 it was less than 5 µM.

As to `CCOC(=O)Cn1ccc2c(-c3ccnc(Nc4cccc(Cl)c4)n3)cccc21` [Compound 5, Ethyl {4-[2-(3-chloro-phenylamino)-pyrimidin-4-yl]-indol-1-yl}acetate], the IC50 against CDK1/cyclinB was more than 50 µM; against CDK2/cyclinA, more than 50 µM; at CDK9/cyclinT1 it was less than 5 µM.

`NS(=O)(=O)c1cccc(Nc2ncc(F)c(-c3cccc4[nH]ccc34)n2)c1` [Compound 34, 3-[5-Fluoro-4-(1H-indol-4-yl)-pyrimidin-2-ylamino]-benzenesulfonamide]: the IC50 at CDK1/cyclinB, against CDK2/cyclinA and against CDK9/cyclinT1 was less than 5 µM in each case.

For `Cn1ccc2c(-c3ccnc(Nc4cccc(Cl)c4)n3)cccc21` [Compound 3, (3-Chloro-phenyl)-[4-(1-methyl-1H-indol-4-yl)-pyrimidin-2-yl]-amine], the IC50 against CDK1/cyclinB is 5 to 15 µM; against CDK2/cyclinA, less than 5 µM; on CDK9/cyclinT1, less than 5 µM.

`CN(C)CCCn1ccc2c(-c3ccnc(Nc4cccc(Cl)c4)n3)cccc21` [Compound 11, (3-Chloro-phenyl)-{4-[1-(3-dimethylamino-propyl)-1H-indol-4-yl]-pyrimidin-2-yl}-amine]: the concentration for half-maximal inhibition (IC50) on CDK1/cyclinB was 5 to 15 µM; against CDK2/cyclinA, less than 5 µM; on CDK9/cyclinT1, less than 5 µM.

In the case of `Cc1cnc(Nc2cccc(Cl)c2)nc1-c1cccc2[nH]ccc12` [Compound 30, (3-Chloro-phenyl)-[4-(1H-indol-4-yl)-5-methyl-pyrimidin-2-yl]-amine], the results for the 50% inhibitory concentration (IC50) against CDK1/cyclinB, at CDK2/cyclinA and at CDK9/cyclinT1 were 15 to 50 µM, 15 to 50 µM and less than 5 µM, respectively.

In the case of `CN(C)C(=O)Cn1ccc2c(-c3ccnc(Nc4cccc(Cl)c4)n3)cccc21` [Compound 14, 2-{4-[2-(3-Chloro-phenylamino)-pyrimidin-4-yl]-indol-1-yl}-N,N-dimethyl-acetamide], the results for the IC50 against CDK1/cyclinB, against CDK2/cyclinA and against CDK9/cyclinT1 were 5 to 15 µM, less than 5 µM and less than 5 µM, respectively.

For `CN(C)CCn1ccc2c(-c3ccnc(Nc4cccc(Cl)c4)n3)cccc21` [Compound 10, (3-Chloro-phenyl)-{4-[1-(2-dimethylamino-ethyl)-1H-indol-4-yl]-pyrimidin-2-yl}-amine], the IC50 on CDK1/cyclinB, against CDK2/cyclinA and at CDK9/cyclinT1 was less than 5 µM each time.

For the compound `CC(C)(C)NC(=O)Cn1ccc2c(-c3ccnc(Nc4cccc(Cl)c4)n3)cccc21` [Compound 15, N-tert-Butyl-2-{4-[2-(3-chloro-phenylamino)-pyrimidin-4-yl]-indol-1-yl}-acetamide], the IC50 against CDK1/cyclinB, at CDK2/cyclinA and against CDK9/cyclinT1 was less than 5 µM each time.

Regarding `COc1cnc(Nc2cccc(S(N)(=O)=O)c2)nc1-c1cccc2[nH]ccc12` [Compound 33, 3-[4-(1H-Indol-4-yl)-5-methoxy-pyrimidin-2-ylamino]-benzenesulfonamide], the 50% inhibitory concentration (IC50) against CDK1/cyclinB, at CDK2/cyclinA and against CDK9/cyclinT1 was less than 5 µM each time.

Values taken from patent US20100093776A1, “Organic Compounds and Their Uses” (Novartis AG, priority 2006, published 2010).
